In US9732075B2, “Benzimidazole-proline derivatives” (IDORSIA PHARMACEUTICALS LTD, priority 2012, dated 2017) one finds IC50 data, which are given here for 50 compounds.

As a reminder, the IC50 is the midpoint of a concentration-inhibition curve.

The target of one assay is human orexin-1 receptor (Homo sapiens (Human), UniProt O43613). In words: In vitro assay: intracellular calcium measurements (FLIPR), antagonistic activity. The note with it: CHO cells expressing human orexin-1 receptor, orexin-A agonist, geometric mean, read-out: IC50 Ox1. It counts as cell-based. In short, it runs like this: (§1)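 Dye-loaded CHO cells expressing either human orexin receptor are exposed to test antagonist for 120 min, then stimulated with orexin-A at 3 nM.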
(A change in cytosolic calcium serves as a functional read-out for many receptors and channels.)

Another assay addresses human orexin-2 receptor (Homo sapiens (Human), UniProt O43614). The assay is described as above. It counts as cell-based. The note with it: CHO cells expressing human orexin-2 receptor, orexin-A agonist, geometric mean, read-out: IC50 Ox2. In short, it runs like this:
as §1

Bounds are passed on as bounds.

Sequence of human orexin-2 receptor (O43614 whole entry): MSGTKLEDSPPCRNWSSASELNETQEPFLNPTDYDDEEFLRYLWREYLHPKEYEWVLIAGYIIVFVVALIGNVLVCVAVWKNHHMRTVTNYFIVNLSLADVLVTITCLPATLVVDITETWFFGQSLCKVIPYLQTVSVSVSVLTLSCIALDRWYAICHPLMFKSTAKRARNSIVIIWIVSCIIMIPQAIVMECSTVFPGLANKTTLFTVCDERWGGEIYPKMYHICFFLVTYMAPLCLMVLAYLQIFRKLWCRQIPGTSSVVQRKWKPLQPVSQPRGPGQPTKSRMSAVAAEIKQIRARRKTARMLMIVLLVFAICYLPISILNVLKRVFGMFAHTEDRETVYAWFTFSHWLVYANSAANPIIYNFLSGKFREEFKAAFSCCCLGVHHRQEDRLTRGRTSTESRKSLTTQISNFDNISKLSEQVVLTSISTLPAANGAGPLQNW
Sequence of human orexin-1 receptor (O43613 whole entry): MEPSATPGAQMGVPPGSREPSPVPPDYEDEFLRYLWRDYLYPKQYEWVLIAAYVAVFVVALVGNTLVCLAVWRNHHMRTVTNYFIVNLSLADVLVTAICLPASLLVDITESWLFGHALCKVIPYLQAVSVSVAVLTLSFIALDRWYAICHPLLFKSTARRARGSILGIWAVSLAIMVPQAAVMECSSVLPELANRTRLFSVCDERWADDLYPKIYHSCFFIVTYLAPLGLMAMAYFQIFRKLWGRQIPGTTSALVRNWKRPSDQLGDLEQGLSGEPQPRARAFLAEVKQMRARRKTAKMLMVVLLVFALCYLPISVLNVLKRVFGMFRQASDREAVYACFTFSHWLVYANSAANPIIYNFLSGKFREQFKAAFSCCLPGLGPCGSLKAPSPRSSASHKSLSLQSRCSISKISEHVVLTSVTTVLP

Turning to `C=C1C[C@@H](c2nc3ccc(OC)cc3[nH]2)N(C(=O)c2cc(Cl)ccc2-n2nccn2)C1` [Ex. 6.136], the IC50 at human orexin-1 receptor amounted to 765 nM; at human orexin-2 receptor, 4 nM.

Turning to `C=C1C[C@@H](c2nc3ccc(OC)cc3[nH]2)N(C(=O)c2cc(C)ccc2-n2cccn2)C1` [Ex. 6.137], the half-maximal inhibitory concentration (IC50) at human orexin-1 receptor came out at 4950 nM; on human orexin-2 receptor it was 23 nM.

For the compound `C=C1C[C@@H](c2nc3ccc(OC)cc3[nH]2)N(C(=O)c2nc(C)ccc2-n2cccn2)C1` [Ex. 6.138], the IC50 at human orexin-1 receptor is more than 6970 nM; on human orexin-2 receptor, 34 nM.

Regarding `C=C1C[C@@H](c2nc3ccc(OC)cc3[nH]2)N(C(=O)c2cc(C)c(C)cc2-n2nccn2)C1` [Ex. 6.139], the half-inhibitory concentration (IC50) on human orexin-1 receptor was 137 nM; at human orexin-2 receptor, 0.6 nM.

Turning to `C=C1C[C@@H](c2nc3ccc(OC)cc3[nH]2)N(C(=O)c2cc(OC)ccc2-n2nccn2)C1` [Ex. 6.140], the IC50 on human orexin-1 receptor stood at 667 nM; on human orexin-2 receptor, 10 nM.

On to `C=C1C[C@@H](c2nc3ccc(OC)cc3[nH]2)N(C(=O)c2c(-n3nccn3)ccc(C)c2F)C1` [Ex. 6.141], for which the values for the 50% inhibitory concentration (IC50) at human orexin-1 receptor and at human orexin-2 receptor were 883 nM and 9 nM, respectively.

Regarding `C=C1C[C@@H](c2nc3cc(C(F)(F)F)c(Cl)cc3[nH]2)N(C(=O)c2nc(C)sc2-c2ccc(C)c(C)c2)C1` [Ex. 6.142], the IC50 on human orexin-1 receptor came to 17 nM; at human orexin-2 receptor, 22 nM.

Take `C=C1CN(C(=O)c2nc(C)sc2-c2cccc(C)c2)C(C)(c2nc3cc(OC)ccc3[nH]2)C1` (stereo not shown) [Ex. 6.143]: the half-maximal inhibitory concentration (IC50) at human orexin-1 receptor is 13 nM; at human orexin-2 receptor, 32 nM.

`C=C1CN(C(=O)c2nc(N(C)C)sc2-c2ccc(C)c(C)c2)C(C)(c2nc3cc(OC)ccc3[nH]2)C1` (stereo not shown) [Ex. 6.144]: the IC50 at human orexin-1 receptor came to 15 nM; on human orexin-2 receptor, 56 nM.

With `C=C1CN(C(=O)c2nc(C)sc2-c2ccc(OC)cc2)C(C)(c2nc3cc(OC)ccc3[nH]2)C1` (stereo not shown) [Ex. 6.147], the IC50 was 13 nM at human orexin-1 receptor and 34 nM at human orexin-2 receptor.

With `C=C1CN(C(=O)c2nc(C)sc2-c2ccc(C)cc2)C(C)(c2nc3cc(OC)ccc3[nH]2)C1` (stereo not shown) [Ex. 6.148], the IC50 on human orexin-1 receptor was 19 nM; at human orexin-2 receptor it was 40 nM.

With `C=C1CN(C(=O)c2ccccc2-c2ccc(C)c(C)c2)C(C)(c2nc3cc(OC)ccc3[nH]2)C1` (stereo not shown) [Ex. 6.149], the figures for the IC50 at human orexin-1 receptor and on human orexin-2 receptor were 59 nM and 90 nM, respectively.

Regarding `C=C1CN(C(=O)c2ccccc2-c2ccccc2)C(C)(c2nc3cc(OC)ccc3[nH]2)C1` (stereo not shown) [Ex. 6.150], the figures for the IC50 on human orexin-1 receptor and at human orexin-2 receptor were 218 nM and 91 nM, respectively.

Regarding `C=C1CN(C(=O)c2nc(N(C)C)sc2-c2cccc(Cl)c2)C(C)(c2nc3cc(OC)ccc3[nH]2)C1` (stereo not shown) [Ex. 6.152], the IC50 turned out to be 5 nM on human orexin-1 receptor and 20 nM at human orexin-2 receptor.

With `C=C1CN(C(=O)c2nc(C)sc2-c2cccc(Cl)c2)C(C)(c2nc3cc(OC)ccc3[nH]2)C1` (stereo not shown) [Ex. 6.153], the IC50 came out at 8 nM on human orexin-1 receptor and 16 nM on human orexin-2 receptor.

Consider `C=C1CN(C(=O)c2ccccc2-n2nccn2)C(C)(c2nc3cc(OC)ccc3[nH]2)C1` (stereo not shown) [Ex. 6.155], for which the IC50 was determined as 649 nM on human orexin-1 receptor and 105 nM on human orexin-2 receptor.

With `C=C1CN(C(=O)c2cc(C)ccc2-n2nccn2)C(C)(c2nc3cc(OC)ccc3[nH]2)C1` (stereo not shown) [Ex. 6.156], the IC50 at human orexin-1 receptor amounted to 34 nM; at human orexin-2 receptor it was 12 nM.

Consider `C=C1CN(C(=O)c2cc(Cl)ccc2-n2nccn2)C(C)(c2nc3cc(OC)ccc3[nH]2)C1` (stereo not shown) [Ex. 6.157], for which the values for the half-inhibitory concentration (IC50) on human orexin-1 receptor and at human orexin-2 receptor were 70 nM and 21 nM, respectively.

`C=C1CN(C(=O)c2cc(OC)ccc2-n2nccn2)C(C)(c2nc3cc(OC)ccc3[nH]2)C1` (stereo not shown) [Ex. 6.158]: the values for the 50% inhibitory concentration (IC50) on human orexin-1 receptor and on human orexin-2 receptor were 57 nM and 35 nM, respectively.

As for `C=C1CN(C(=O)c2cc(C)c(C)cc2-n2nccn2)C(C)(c2nc3cc(OC)ccc3[nH]2)C1` (stereo not shown) [Ex. 6.159], the IC50 at human orexin-1 receptor came out at 11 nM; at human orexin-2 receptor it was 10 nM.

Turning to `C=C1C[C@@H](c2nc3cc(C(C)(C)C)ccc3[nH]2)N(C(=O)c2cc(F)ccc2-n2nccn2)C1` [Ex. 6.160], the IC50 on human orexin-1 receptor was found to be 326 nM; at human orexin-2 receptor, 8 nM.

Regarding `C=C1C[C@@H](c2nc3cc(C(C)(C)C)ccc3[nH]2)N(C(=O)c2cc(Cl)ccc2-n2nccn2)C1` [Ex. 6.161], the results for the 50% inhibitory concentration (IC50) at human orexin-1 receptor and at human orexin-2 receptor were 51 nM and 3 nM, respectively.

With `C=C1C[C@@H](c2nc3cc(C(C)(C)C)ccc3[nH]2)N(C(=O)c2ccccc2-n2nccn2)C1` [Ex. 6.162], the concentration for half-maximal inhibition (IC50) is 330 nM on human orexin-1 receptor and 7 nM at human orexin-2 receptor.

Consider `C=C1C[C@@H](c2nc3cc(C(C)(C)C)ccc3[nH]2)N(C(=O)c2c(-n3nccn3)ccc(OC)c2F)C1` [Ex. 6.163], for which the values for the IC50 at human orexin-1 receptor and on human orexin-2 receptor were 259 nM and 72 nM, respectively.

Consider `C=C1C[C@@H](c2nc3cc(C(C)(C)C)ccc3[nH]2)N(C(=O)c2c(-n3nccn3)ccc(C)c2F)C1` [Ex. 6.164], for which the half-inhibitory concentration (IC50) on human orexin-1 receptor amounted to 100 nM; at human orexin-2 receptor it was 9 nM.

For `C=C1C[C@@H](c2nc3cc(C(C)(C)C)ccc3[nH]2)N(C(=O)c2cc(C)c(C)cc2-n2nccn2)C1` [Ex. 6.165], the values for the IC50 on human orexin-1 receptor and on human orexin-2 receptor were 9 nM and 3 nM, respectively.

In the case of `C=C1C[C@@H](c2nc3cc(C(C)(C)C)ccc3[nH]2)N(C(=O)c2ccc(C)cc2-n2nccn2)C1` [Ex. 6.166], the values for the IC50 on human orexin-1 receptor and at human orexin-2 receptor were 33 nM and 4 nM, respectively.

As to `C=C1C[C@@H](c2nc3cc(C(C)(C)C)ccc3[nH]2)N(C(=O)c2c(C)cccc2-n2nccn2)C1` [Ex. 6.167], the half-maximal inhibitory concentration (IC50) came to 573 nM at human orexin-1 receptor and 25 nM at human orexin-2 receptor.

For the compound `C=C1C[C@@H](c2nc3cc(C(C)(C)C)ccc3[nH]2)N(C(=O)c2cc(C(F)(F)F)ccc2-n2nccn2)C1` [Ex. 6.168], the IC50 at human orexin-1 receptor was 261 nM; on human orexin-2 receptor it was 54 nM.

Consider `C=C1C[C@@H](c2nc3cc(C(C)(C)C)ccc3[nH]2)N(C(=O)c2cc(OC(F)(F)F)ccc2-n2nccn2)C1` [Ex. 6.169], for which the IC50 was determined as 344 nM on human orexin-1 receptor and 479 nM at human orexin-2 receptor.

With `C=C1C[C@@H](c2nc3cc(C(C)(C)C)ccc3[nH]2)N(C(=O)c2cc(OC)c(OC)cc2-n2nccn2)C1` [Ex. 6.170], the IC50 at human orexin-1 receptor was 18 nM; at human orexin-2 receptor it was 15 nM.

With `C=C1C[C@@H](c2nc3cc(C(C)(C)C)ccc3[nH]2)N(C(=O)c2cc(C)ccc2-n2cccn2)C1` [Ex. 6.171], the concentration for half-maximal inhibition (IC50) on human orexin-1 receptor was determined as 162 nM; at human orexin-2 receptor it was 19 nM.

As to `C=C1C[C@@H](c2nc3cc(C(C)(C)C)ccc3[nH]2)N(C(=O)c2ccccc2-n2cccn2)C1` [Ex. 6.172], the 50% inhibitory concentration (IC50) at human orexin-1 receptor came to 1260 nM; at human orexin-2 receptor, 67 nM.

For `C=C1C[C@@H](c2nc3cc(C(C)(C)C)ccc3[nH]2)N(C(=O)c2nc(C)ccc2-n2cccn2)C1` [Ex. 6.173], the 50% inhibitory concentration (IC50) on human orexin-1 receptor is 842 nM; at human orexin-2 receptor, 64 nM.

`C=C1C[C@@H](c2nc3cc(C(C)(C)C)ccc3[nH]2)N(C(=O)c2nc(C)ccc2-n2nccn2)C1` [Ex. 6.174]: the results for the half-maximal inhibitory concentration (IC50) on human orexin-1 receptor and on human orexin-2 receptor were 233 nM and 15 nM, respectively.

Consider `C=C1C[C@@H](c2nc3cc(Cl)c(C(F)(F)F)cc3[nH]2)N(C(=O)c2c(F)cccc2-n2nccn2)C1` [Ex. 6.175], for which the IC50 was 77 nM on human orexin-1 receptor and 19 nM on human orexin-2 receptor.

Consider `C=C1C[C@@H](c2nc3cc(Cl)c(C(F)(F)F)cc3[nH]2)N(C(=O)c2cc(F)ccc2-n2nccn2)C1` [Ex. 6.176], for which the values for the half-inhibitory concentration (IC50) on human orexin-1 receptor and on human orexin-2 receptor were 58 nM and 18 nM, respectively.

As to `C=C1C[C@@H](c2nc3cc(Cl)c(C(F)(F)F)cc3[nH]2)N(C(=O)c2cc(Cl)ccc2-n2nccn2)C1` [Ex. 6.177], the half-inhibitory concentration (IC50) at human orexin-1 receptor came to 13 nM; at human orexin-2 receptor, 6 nM.

Take `C=C1C[C@@H](c2nc3cc(Cl)c(C(F)(F)F)cc3[nH]2)N(C(=O)c2ccccc2-n2nccn2)C1` [Ex. 6.178]: the IC50 is 44 nM on human orexin-1 receptor and 10 nM on human orexin-2 receptor.

On to `C=C1C[C@@H](c2nc3cc(Cl)c(C(F)(F)F)cc3[nH]2)N(C(=O)c2c(-n3nccn3)ccc(OC)c2F)C1` [Ex. 6.179], for which the values for the IC50 at human orexin-1 receptor and on human orexin-2 receptor were 6 nM and 7 nM, respectively.

For `C=C1C[C@@H](c2nc3cc(Cl)c(C(F)(F)F)cc3[nH]2)N(C(=O)c2c(-n3nccn3)ccc(C)c2F)C1` [Ex. 6.180], the results for the IC50 at human orexin-1 receptor and at human orexin-2 receptor were 5 nM and 4 nM, respectively.

Take `C=C1C[C@@H](c2nc3cc(Cl)c(C(F)(F)F)cc3[nH]2)N(C(=O)c2cc(C)c(C)cc2-n2nccn2)C1` [Ex. 6.181]: the IC50 on human orexin-1 receptor and on human orexin-2 receptor was 2 nM in each case.

Take `C=C1C[C@@H](c2nc3cc(Cl)c(C(F)(F)F)cc3[nH]2)N(C(=O)c2ccc(C)cc2-n2nccn2)C1` [Ex. 6.182]: the values for the IC50 on human orexin-1 receptor and on human orexin-2 receptor were 12 nM and 6 nM, respectively.

With `C=C1C[C@@H](c2nc3cc(Cl)c(C(F)(F)F)cc3[nH]2)N(C(=O)c2c(C)cccc2-n2nccn2)C1` [Ex. 6.183], the IC50 on human orexin-1 receptor came to 127 nM; on human orexin-2 receptor, 21 nM.

In the case of `C=C1C[C@@H](c2nc3cc(Cl)c(C(F)(F)F)cc3[nH]2)N(C(=O)c2cc(C(F)(F)F)ccc2-n2nccn2)C1` [Ex. 6.184], the figures for the concentration for half-maximal inhibition (IC50) at human orexin-1 receptor and at human orexin-2 receptor were 67 nM and 73 nM, respectively.

Take `C=C1C[C@@H](c2nc3cc(Cl)c(C(F)(F)F)cc3[nH]2)N(C(=O)c2cc(OC(F)(F)F)ccc2-n2nccn2)C1` [Ex. 6.185]: the IC50 stood at 239 nM at human orexin-1 receptor and 103 nM at human orexin-2 receptor.

Turning to `C=C1C[C@@H](c2nc3cc(Cl)c(C(F)(F)F)cc3[nH]2)N(C(=O)c2cc(OC)c(OC)cc2-n2nccn2)C1` [Ex. 6.186], the half-maximal inhibitory concentration (IC50) was 27 nM at human orexin-1 receptor and 6 nM at human orexin-2 receptor.

Regarding `C=C1C[C@@H](c2nc3cc(Cl)c(C(F)(F)F)cc3[nH]2)N(C(=O)c2cc(C)ccc2-n2cccn2)C1` [Ex. 6.187], the IC50 at human orexin-1 receptor is 24 nM; at human orexin-2 receptor it was 15 nM.

As for `C=C1C[C@@H](c2nc3cc(Cl)c(C(F)(F)F)cc3[nH]2)N(C(=O)c2ccccc2-n2cccn2)C1` [Ex. 6.188], the concentration for half-maximal inhibition (IC50) at human orexin-1 receptor was 115 nM; at human orexin-2 receptor, 66 nM.

Regarding `C=C1C[C@@H](c2nc3cc(Cl)c(C(F)(F)F)cc3[nH]2)N(C(=O)c2nc(C)ccc2-n2cccn2)C1` [Ex. 6.189], the IC50 amounted to 47 nM on human orexin-1 receptor and 25 nM at human orexin-2 receptor.
